Measured values as given in ChEMBL document CHEMBL3232964, “Quinone-carbohydrate nonglucoside conjugates as a new type of cytotoxic agents: synthesis and determination of in vitro activity” (Eur J Med Chem, 2014).
Active and inactive are the calls of the source. The calls are words filed in the database; no cut-off is given here.

Tests used:
[1] = Cytotoxicity against tumor promotion-sensitive mouse JB6 Cl41 cells assessed as cell viability after 48 hrs by MTS assay; type: cell-based; conditions: JB6 Cl41, 48 h
[2] = test system: HeLa; experiment: Cytotoxicity against human HeLa cells assessed as cell viability after 24 hrs by MTS assay; type: functional, cell-based
[3] = test system: HeLa; experiment: Cytotoxicity against human HeLa cells assessed as cell viability after 48 hrs by MTS assay; type: functional, cell-based
[4] = test system: HeLa; experiment: Cytotoxicity against human HeLa cells assessed as inhibition of number of colonies formed in soft agar after 14 days by microscopic analysis; type: functional
[5] = target: Cellular tumor antigen p53 (Mus musculus) (UniProt P02340); experiment: Inhibition of p53-dependent transcriptional activity in tumor promotion-sensitive mouse JB6 Cl41 cells after 12 hrs by luciferase-based method; type: cell-based
[6] = test system: HeLa; experiment: Ratio of IC50 to INCC50 for human HeLa cells; type: functional
[7] = test system: HeLa; experiment: Induction of p53-independent apoptosis in human HeLa cells assessed as late apoptotic/necrotic cells at 5 uM after 24 hrs by Annexin-V-FITC/propidium iodide double staining based flow cytometry (reference value: 0.88 +/- 0.72%); type: functional
[8] = test system: HeLa; experiment: Induction of p53-independent apoptosis in human HeLa cells assessed as viable cells at 2.5 uM after 24 hrs by Annexin-V-FITC/propidium iodide double staining based flow cytometry (reference value: 88.52 +/- 11%); type: functional; conditions: read-out: Activity
[9] = Induction of apoptosis in tumor promotion-sensitive mouse JB6 Cl41 cells assessed as dead cells at 5 uM after 24 hrs by Annexin-V-FITC/propidium iodide staining based flow cytometry (reference value: 2.99 +/- 0.82%); type: cell-based; conditions: jb6 cl41, 24 h
[10] = Induction of apoptosis in tumor promotion-sensitive mouse JB6 Cl41 cells assessed as viable cells at 5 uM after 24 hrs by Annexin-V-FITC/propidium iodide staining based flow cytometry (reference value: 94.33 +/- 0.87%); type: cell-based; conditions: read-out: Activity
[11] = Induction of apoptosis in tumor promotion-sensitive mouse JB6 Cl41 cells assessed as viable cells at 2.5 uM after 24 hrs by Annexin-V-FITC/propidium iodide staining based flow cytometry (reference value: 94.33 +/- 0.87%); type: cell-based; conditions: read-out: Activity
[12] = test system: HeLa; experiment: Induction of p53-independent apoptosis in human HeLa cells assessed as early apoptotic cells at 10 uM after 24 hrs by Annexin-V-FITC/propidium iodide double staining based flow cytometry (reference value: 6.71 +/- 4.41%); type: functional
[13] = Induction of apoptosis in tumor promotion-sensitive mouse JB6 Cl41 cells assessed as early apoptotic cells at 2.5 uM after 24 hrs by Annexin-V-FITC/propidium iodide staining based flow cytometry (reference value: 2.15 +/- 1.18%); type: cell-based; conditions: jb6 cl41, 24 h
[14] = test system: HeLa; experiment: Induction of p53-independent apoptosis in human HeLa cells assessed as early apoptotic cells at 5 uM after 24 hrs by Annexin-V-FITC/propidium iodide double staining based flow cytometry (reference value: 6.71 +/- 4.41%); type: functional
[15] = test system: HeLa; experiment: Induction of p53-independent apoptosis in human HeLa cells assessed as viable cells at 5 uM after 24 hrs by Annexin-V-FITC/propidium iodide double staining based flow cytometry (reference value: 88.52 +/- 11%); type: functional; conditions: read-out: Activity
[16] = Induction of apoptosis in tumor promotion-sensitive mouse JB6 Cl41 cells assessed as viable cells at 10 uM after 24 hrs by Annexin-V-FITC/propidium iodide staining based flow cytometry (reference value: 94.33 +/- 0.87%); type: cell-based; conditions: read-out: Activity
[17] = test system: HeLa; experiment: Induction of p53-independent apoptosis in human HeLa cells assessed as dead cells at 2.5 uM after 24 hrs by Annexin-V-FITC/propidium iodide double staining based flow cytometry (reference value: 3.89 +/- 0.3%); type: functional
[18] = test system: HeLa; experiment: Induction of p53-independent apoptosis in human HeLa cells assessed as late apoptotic/necrotic cells at 10 uM after 24 hrs by Annexin-V-FITC/propidium iodide double staining based flow cytometry (reference value: 0.88 +/- 0.72%); type: functional
[19] = test system: HeLa; experiment: Induction of p53-independent apoptosis in human HeLa cells assessed as early apoptotic cells at 2.5 uM after 24 hrs by Annexin-V-FITC/propidium iodide double staining based flow cytometry (reference value: 6.71 +/- 4.41%); type: functional
[20] = Induction of apoptosis in tumor promotion-sensitive mouse JB6 Cl41 cells assessed as dead cells at 10 uM after 24 hrs by Annexin-V-FITC/propidium iodide staining based flow cytometry (reference value: 2.99 +/- 0.82%); type: cell-based; conditions: jb6 cl41, 24 h
[21] = test system: HeLa; experiment: Induction of p53-independent apoptosis in human HeLa cells assessed as viable cells at 10 uM after 24 hrs by Annexin-V-FITC/propidium iodide double staining based flow cytometry (reference value: 88.52 +/- 11%); type: functional; conditions: read-out: Activity
[22] = Induction of apoptosis in tumor promotion-sensitive mouse JB6 Cl41 cells assessed as early apoptotic cells at 10 uM after 24 hrs by Annexin-V-FITC/propidium iodide staining based flow cytometry (reference value: 2.15 +/- 1.18%); type: cell-based; conditions: jb6 cl41, 24 h
[23] = Induction of apoptosis in tumor promotion-sensitive mouse JB6 Cl41 cells assessed as late apoptotic/necrotic cells at 2.5 uM after 24 hrs by Annexin-V-FITC/propidium iodide staining based flow cytometry (reference value: 0.53 +/- 0.47%); type: cell-based; conditions: jb6 cl41, 24 h
[24] = test system: HeLa; experiment: Induction of p53-independent apoptosis in human HeLa cells assessed as dead cells at 5 uM after 24 hrs by Annexin-V-FITC/propidium iodide double staining based flow cytometry (reference value: 3.89 +/- 0.3%); type: functional
[25] = Induction of apoptosis in tumor promotion-sensitive mouse JB6 Cl41 cells assessed as dead cells at 2.5 uM after 24 hrs by Annexin-V-FITC/propidium iodide staining based flow cytometry (reference value: 2.99 +/- 0.82%); type: cell-based; conditions: jb6 cl41, 24 h
[26] = Induction of apoptosis in tumor promotion-sensitive mouse JB6 Cl41 cells assessed as late apoptotic/necrotic cells at 5 uM after 24 hrs by Annexin-V-FITC/propidium iodide staining based flow cytometry (reference value: 0.53 +/- 0.47%); type: cell-based; conditions: jb6 cl41, 24 h
[27] = test system: HeLa; experiment: Induction of p53-independent apoptosis in human HeLa cells assessed as late apoptotic/necrotic cells at 2.5 uM after 24 hrs by Annexin-V-FITC/propidium iodide double staining based flow cytometry (reference value: 0.88 +/- 0.72%); type: functional
[28] = Induction of apoptosis in tumor promotion-sensitive mouse JB6 Cl41 cells assessed as late apoptotic/necrotic cells at 10 uM after 24 hrs by Annexin-V-FITC/propidium iodide staining based flow cytometry (reference value: 0.53 +/- 0.47%); type: cell-based; conditions: jb6 cl41, 24 h
[29] = Induction of apoptosis in tumor promotion-sensitive mouse JB6 Cl41 cells assessed as early apoptotic cells at 5 uM after 24 hrs by Annexin-V-FITC/propidium iodide staining based flow cytometry (reference value: 2.15 +/- 1.18%); type: cell-based; conditions: jb6 cl41, 24 h
[30] = test system: HeLa; experiment: Induction of p53-independent apoptosis in human HeLa cells assessed as dead cells at 10 uM after 24 hrs by Annexin-V-FITC/propidium iodide double staining based flow cytometry (reference value: 3.89 +/- 0.3%); type: functional

Cellular tumor antigen p53 (Mus musculus), sequence (P02340 whole entry): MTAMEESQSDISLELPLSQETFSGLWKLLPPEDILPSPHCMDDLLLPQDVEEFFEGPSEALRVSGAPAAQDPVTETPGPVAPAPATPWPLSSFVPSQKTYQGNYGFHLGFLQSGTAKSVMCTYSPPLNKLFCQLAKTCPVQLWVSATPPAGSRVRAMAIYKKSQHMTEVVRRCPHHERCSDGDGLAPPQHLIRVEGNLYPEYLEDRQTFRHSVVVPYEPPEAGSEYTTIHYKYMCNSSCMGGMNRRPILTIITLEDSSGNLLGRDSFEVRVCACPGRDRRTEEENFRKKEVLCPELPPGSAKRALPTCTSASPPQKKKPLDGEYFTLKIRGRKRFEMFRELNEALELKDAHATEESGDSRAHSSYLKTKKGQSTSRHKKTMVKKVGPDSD

Which results are given for COC1=CC(=O)c2c(O)ccc(O)c2C1=O?
IC50 [1]: 2.49 µM; IC50 [2]: 1.8 µM; IC50 [3]: 2.16 µM; INCC50 [4]: 0.73 µM; inhibition [5]: Active; Ratio [6]: 2.97

For CO[C@H]1O[C@H](COC2=CC(=O)c3c(O)cccc3C2=O)[C@@H](O)[C@H](O)[C@H]1O, which Activity [7] is on record?
Its Activity is 1.38%.

And the viability at 2.5 µM [8]?
The viability at 2.5 µM was 84.7%.

And the Activity [9]?
Its Activity is 3.36%.

What about the viability at 24 h, 5 µM [10] of the same compound?
The viability at 24 h, 5 µM was 79.4%.

And the viability at 24 h, 2.5 µM [11]?
Its viability at 24 h, 2.5 µM is 94.3%.

What about the Activity [12] of the same compound?
Its Activity is 32.33%.

And the Activity [13]?
Its Activity is 2.77%.

What about the Activity [14] of the same compound?
The Activity was 13.09%.

What about the viability at 5 µM [15] of the same compound?
Its viability at 5 µM is 82.8%.

And the viability at 24 h, 10 µM [16]?
Its viability at 24 h, 10 µM is 13.3%.

And the Activity [17]?
The Activity was 3.47%.

And the Activity [18]?
The Activity was 26.07%.

What about the Activity [19] of the same compound?
The Activity was 10.42%.

And the IC50 [1]?
Its IC50 is 6.54 µM.

What about the IC50 [2] of the same compound?
The IC50 was 5.2 µM.

What about the Activity [20] of the same compound?
Its Activity is 1.76%.

And the IC50 [3]?
The IC50 was 5.22 µM.

What about the viability at 10 µM [21] of the same compound?
The viability at 10 µM was 20.1%.

And the Activity [22]?
Its Activity is 82.93%.

And the Activity [23]?
Its Activity is 0.62%.

And the Activity [24]?
Its Activity is 2.73%.

What about the Activity [25] of the same compound?
Its Activity is 2.35%.

What about the Activity [26] of the same compound?
Its Activity is 1.93%.

What about the Activity [27] of the same compound?
Its Activity is 1.44%.

And the INCC50 [4]?
Its INCC50 is 1.68 µM.

What about the Activity [28] of the same compound?
Its Activity is 2.01%.

And the inhibition [5]?
The inhibition was “Active”.

What about the Activity [29] of the same compound?
Its Activity is 15.33%.

What about the Ratio [6] of the same compound?
The Ratio was 3.11.

And the Activity [30]?
The Activity was 21.48%.

Which IC50 [1] does the source give for O=C1C=C(O)C(=O)c2c(O)ccc(O)c21 here?
Its IC50 is 71.2 µM.

What about the IC50 [2] of the same compound?
Its IC50 is 42.4 µM.

And the IC50 [3]?
The IC50 was 37.9 µM.

And the INCC50 [4]?
Its INCC50 is 8.06 µM.

And the inhibition [5]?
The inhibition was “Active”.

And the Ratio [6]?
Its Ratio is 4.71.

What does the source list for O=C1C=C(O)c2c(O)cccc2C1=O?
IC50 [1]: > 200 µM; IC50 [2]: 196 µM; IC50 [3]: 187 µM; INCC50 [4]: 109.37 µM; inhibition [5]: Active; Ratio [6]: 1.71

What does the source list for O=C1C=C(O)c2cccc(O)c2C1=O?
IC50 [1]: 193 µM; IC50 [2]: 124 µM; IC50 [3]: 118 µM; INCC50 [4]: 35.51 µM; inhibition [5]: Active; Ratio [6]: 3.33
